# Test results: PubChem BioAssay AID2060599 (Molecular Pharmacology Branch, DTP, NCI, 2025)
# System: 817829-284-R-J1-PDC complex spheroids, viability
# Experiment: Anticancer human tumor 817829-284-R-J1-PDC patient-derived colon adenocarcinoma cell line growth inhibition [CLK]
# Conditions: for IC50: curve of first compound; for viability, T/C: stronger effect = lower value
# In short: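 Multi-cell-type spheroids combined patient-derived tumor cells with HUVEC endothelial cells and human mesenchymal stem cells. Paired agents were dosed in half-log steps down from about clinical Cmax, or from 10 microM where Cmax was unknown.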
# [1] = second compound 0.0316 µM, first compound 0.0316 µM
# [2] = second compound 0.0316 µM, first compound 0.1 µM
# [3] = second compound 0.0316 µM, first compound 0.316 µM
# [4] = second compound 0.0316 µM, first compound 1 µM
# [5] = second compound 0.0316 µM, first compound 3.16 µM
# [6] = second compound 0.0316 µM, first compound 10 µM
# [7] = second compound 0.1 µM, first compound 0.0316 µM
# [8] = second compound 0.1 µM, first compound 0.1 µM
# [9] = second compound 0.1 µM, first compound 0.316 µM
# [10] = second compound 0.1 µM, first compound 1 µM
# [11] = second compound 0.1 µM, first compound 3.16 µM
# [12] = second compound 0.1 µM, first compound 10 µM
# [13] = second compound 0.316 µM, first compound 0.0316 µM
# [14] = second compound 0.316 µM, first compound 0.1 µM
# [15] = second compound 0.316 µM, first compound 0.316 µM
# [16] = second compound 0.316 µM, first compound 1 µM
# [17] = second compound 0.316 µM, first compound 3.16 µM
# [18] = second compound 0.316 µM, first compound 10 µM
# [19] = second compound 1 µM, first compound 0.0316 µM
# [20] = second compound 1 µM, first compound 0.1 µM
# [21] = second compound 1 µM, first compound 0.316 µM
# [22] = second compound 1 µM, first compound 1 µM
# [23] = second compound 1 µM, first compound 3.16 µM
# [24] = second compound 1 µM, first compound 10 µM
# [25] = second compound 3.16 µM, first compound 0.0316 µM
# [26] = second compound 3.16 µM, first compound 0.1 µM
# [27] = second compound 3.16 µM, first compound 0.316 µM
# [28] = second compound 3.16 µM, first compound 1 µM
# [29] = second compound 3.16 µM, first compound 3.16 µM
# [30] = second compound 3.16 µM, first compound 10 µM
# [31] = second compound 10 µM, first compound 0.0316 µM
# [32] = second compound 10 µM, first compound 0.1 µM
# [33] = second compound 10 µM, first compound 0.316 µM
# [34] = second compound 10 µM, first compound 1 µM
# [35] = second compound 10 µM, first compound 3.16 µM
# [36] = second compound 10 µM, first compound 10 µM
# 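Further: spheroids exposed to the agents for seven days before readout.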
structure (smiles),measurement,setting,value
C=CC(=O)Nc1cc(Nc2nccc(-c3cn(C)c4ccccc34)n2)c(OC)cc1N(C)CCN(C)C + CN1CCN(c2cc(C(=O)Nc3cc4cc(-c5cnn(C)c5)ccc4cn3)ccn2)CC1,IC50,second compound 0.0316 µM,> 300 nM
same,IC50,second compound 0.1 µM,< 0.949 nM
same,IC50,second compound 0.316 µM,< 0.949 nM
same,IC50,second compound 1 µM,< 0.949 nM
same,IC50,second compound 3.16 µM,< 0.949 nM
same,IC50,second compound 10 µM,< 0.949 nM
same,"viability, T/C","second compound 0.0316 µM, first compound 0.000949 µM",51.7%
same,"viability, T/C","second compound 0.0316 µM, first compound 0.003 µM",48.2%
same,"viability, T/C","second compound 0.0316 µM, first compound 0.00949 µM",57.6%
same,"viability, T/C","second compound 0.0316 µM, first compound 0.03 µM",58.5%
same,"viability, T/C","second compound 0.0316 µM, first compound 0.0949 µM",67.9%
same,"viability, T/C","second compound 0.0316 µM, first compound 0.3 µM",41.1%
same,"viability, T/C","second compound 0.1 µM, first compound 0.000949 µM",16.4%
same,"viability, T/C","second compound 0.1 µM, first compound 0.003 µM",17.8%
same,"viability, T/C","second compound 0.1 µM, first compound 0.00949 µM",16.3%
same,"viability, T/C","second compound 0.1 µM, first compound 0.03 µM",19.6%
same,"viability, T/C","second compound 0.1 µM, first compound 0.0949 µM",14.4%
same,"viability, T/C","second compound 0.1 µM, first compound 0.3 µM",10.9%
same,"viability, T/C","second compound 0.316 µM, first compound 0.000949 µM",1.39%
same,"viability, T/C","second compound 0.316 µM, first compound 0.003 µM",1.52%
same,"viability, T/C","second compound 0.316 µM, first compound 0.00949 µM",1.82%
same,"viability, T/C","second compound 0.316 µM, first compound 0.03 µM",1.58%
same,"viability, T/C","second compound 0.316 µM, first compound 0.0949 µM",1.13%
same,"viability, T/C","second compound 0.316 µM, first compound 0.3 µM",0.72%
same,"viability, T/C","second compound 1 µM, first compound 0.000949 µM",0.08%
same,"viability, T/C","second compound 1 µM, first compound 0.003 µM",0.12%
same,"viability, T/C","second compound 1 µM, first compound 0.00949 µM",0.1%
same,"viability, T/C","second compound 1 µM, first compound 0.03 µM",0.09%
same,"viability, T/C","second compound 1 µM, first compound 0.0949 µM",0.17%
same,"viability, T/C","second compound 1 µM, first compound 0.3 µM",0.09%
same,"viability, T/C","second compound 3.16 µM, first compound 0.000949 µM",0.14%
same,"viability, T/C","second compound 3.16 µM, first compound 0.003 µM",0.16%
same,"viability, T/C","second compound 3.16 µM, first compound 0.00949 µM",0.18%
same,"viability, T/C","second compound 3.16 µM, first compound 0.03 µM",0.12%
same,"viability, T/C","second compound 3.16 µM, first compound 0.0949 µM",0.1%
same,"viability, T/C","second compound 3.16 µM, first compound 0.3 µM",0.1%
same,"viability, T/C","second compound 10 µM, first compound 0.000949 µM",0.14%
same,"viability, T/C","second compound 10 µM, first compound 0.003 µM",0.13%
same,"viability, T/C","second compound 10 µM, first compound 0.00949 µM",0.13%
same,"viability, T/C","second compound 10 µM, first compound 0.03 µM",0.13%
same,"viability, T/C","second compound 10 µM, first compound 0.0949 µM",0.15%
same,"viability, T/C","second compound 10 µM, first compound 0.3 µM",0.13%
COC1C=CCC(C)C(C)S(=O)(=O)NC(=O)c2ccc3c(c2)N(CC2CCC21)CC1(CCCc2cc(Cl)ccc21)CO3 (stereo not drawn) + CN1CCN(c2cc(C(=O)Nc3cc4cc(-c5cnn(C)c5)ccc4cn3)ccn2)CC1,IC50,second compound 0.0316 µM,1410 nM
same,IC50,second compound 0.1 µM,< 31.6 nM
same,IC50,second compound 0.316 µM,< 31.6 nM
same,IC50,second compound 1 µM,< 31.6 nM
same,IC50,second compound 3.16 µM,< 31.6 nM
same,IC50,second compound 10 µM,< 31.6 nM
same,"viability, T/C",[1],52.5%
same,"viability, T/C",[2],70%
same,"viability, T/C",[3],51.2%
same,"viability, T/C",[4],63.3%
same,"viability, T/C",[5],28.2%
same,"viability, T/C",[6],7.26%
same,"viability, T/C",[7],21.4%
same,"viability, T/C",[8],18.1%
same,"viability, T/C",[9],16.3%
same,"viability, T/C",[10],12.3%
same,"viability, T/C",[11],5.31%
same,"viability, T/C",[12],2.6%
same,"viability, T/C",[13],1.91%
same,"viability, T/C",[14],1.47%
same,"viability, T/C",[15],1.45%
same,"viability, T/C",[16],1.31%
same,"viability, T/C",[17],1.5%
same,"viability, T/C",[18],0.95%
same,"viability, T/C",[19],0.08%
same,"viability, T/C",[20],0.21%
same,"viability, T/C",[21],0.16%
same,"viability, T/C",[22],0.07%
same,"viability, T/C",[23],0.35%
same,"viability, T/C",[24],0.05%
same,"viability, T/C",[25],0.15%
same,"viability, T/C",[26],0.16%
same,"viability, T/C",[27],0.23%
same,"viability, T/C",[28],0.46%
same,"viability, T/C",[29],0.28%
same,"viability, T/C",[30],0.08%
same,"viability, T/C",[31],0.48%
same,"viability, T/C",[32],0.13%
same,"viability, T/C",[33],0.19%
same,"viability, T/C",[34],0.31%
same,"viability, T/C",[35],0.37%
same,"viability, T/C",[36],0.17%
CCN1CCN(Cc2ccc(Nc3ncc(F)c(-c4cc(F)c5nc(C)n(C(C)C)c5c4)n3)nc2)CC1 + CN1CCN(c2cc(C(=O)Nc3cc4cc(-c5cnn(C)c5)ccc4cn3)ccn2)CC1,IC50,second compound 0.0316 µM,21.1 nM
same,IC50,second compound 0.1 µM,< 3.16 nM
same,IC50,second compound 0.316 µM,< 3.16 nM
same,IC50,second compound 1 µM,< 3.16 nM
same,IC50,second compound 3.16 µM,< 3.16 nM
same,IC50,second compound 10 µM,< 3.16 nM
same,"viability, T/C","second compound 0.0316 µM, first compound 0.00316 µM",49.6%
same,"viability, T/C","second compound 0.0316 µM, first compound 0.01 µM",64.4%
same,"viability, T/C",[1],46.2%
same,"viability, T/C",[2],36.6%
same,"viability, T/C",[3],36.9%
same,"viability, T/C",[4],29.2%
same,"viability, T/C","second compound 0.1 µM, first compound 0.00316 µM",17.4%
same,"viability, T/C","second compound 0.1 µM, first compound 0.01 µM",16.2%
same,"viability, T/C",[7],15.4%
same,"viability, T/C",[8],20.7%
same,"viability, T/C",[9],18.7%
same,"viability, T/C",[10],11.8%
same,"viability, T/C","second compound 0.316 µM, first compound 0.00316 µM",1.34%
same,"viability, T/C","second compound 0.316 µM, first compound 0.01 µM",1.6%
same,"viability, T/C",[13],1.6%
same,"viability, T/C",[14],1.6%
same,"viability, T/C",[15],2.31%
same,"viability, T/C",[16],0.61%
same,"viability, T/C","second compound 1 µM, first compound 0.00316 µM",0.17%
same,"viability, T/C","second compound 1 µM, first compound 0.01 µM",0.12%
same,"viability, T/C",[19],0.08%
same,"viability, T/C",[20],0.08%
same,"viability, T/C",[21],0.1%
same,"viability, T/C",[22],0.19%
same,"viability, T/C","second compound 3.16 µM, first compound 0.00316 µM",0.13%
same,"viability, T/C","second compound 3.16 µM, first compound 0.01 µM",0.14%
same,"viability, T/C",[25],0.12%
same,"viability, T/C",[26],0.15%
same,"viability, T/C",[27],0.12%
same,"viability, T/C",[28],0.1%
same,"viability, T/C","second compound 10 µM, first compound 0.00316 µM",0.09%
same,"viability, T/C","second compound 10 µM, first compound 0.01 µM",0.1%
same,"viability, T/C",[31],0.08%
same,"viability, T/C",[32],0.09%
same,"viability, T/C",[33],0.11%
same,"viability, T/C",[34],0.08%
O=c1[nH]cc(F)c(=O)[nH]1 + CNC(=O)c1ccc(Nc2nc(OC3CCCC3)c3c(-c4ccc5nc(C)oc5c4)c[nH]c3n2)c(OC)c1,IC50,second compound 0.0316 µM,< 31.6 nM
same,IC50,second compound 0.1 µM,< 31.6 nM
same,IC50,second compound 0.316 µM,< 31.6 nM
same,IC50,second compound 1 µM,< 31.6 nM
same,IC50,second compound 3.16 µM,< 31.6 nM
same,IC50,second compound 10 µM,< 31.6 nM
same,"viability, T/C",[1],37.3%
same,"viability, T/C",[2],39.1%
same,"viability, T/C",[3],24.6%
same,"viability, T/C",[4],38.4%
same,"viability, T/C",[5],29.1%
same,"viability, T/C",[6],22.6%
same,"viability, T/C",[7],19.2%
same,"viability, T/C",[8],24%
same,"viability, T/C",[9],22.7%
same,"viability, T/C",[10],22.6%
same,"viability, T/C",[11],18.5%
same,"viability, T/C",[12],17.6%
same,"viability, T/C",[13],17.6%
same,"viability, T/C",[14],26.6%
same,"viability, T/C",[15],17.4%
same,"viability, T/C",[16],23.1%
same,"viability, T/C",[17],15%
same,"viability, T/C",[18],12.6%
same,"viability, T/C",[19],17.2%
same,"viability, T/C",[20],16.8%
same,"viability, T/C",[21],16.9%
same,"viability, T/C",[22],11.3%
same,"viability, T/C",[23],13.3%
same,"viability, T/C",[24],7%
same,"viability, T/C",[25],18.9%
same,"viability, T/C",[26],20.1%
same,"viability, T/C",[27],13.6%
same,"viability, T/C",[28],14.7%
same,"viability, T/C",[29],10.8%
same,"viability, T/C",[30],7.07%
same,"viability, T/C",[31],20.7%
same,"viability, T/C",[32],22.1%
same,"viability, T/C",[33],17.8%
same,"viability, T/C",[34],11.7%
same,"viability, T/C",[35],7.79%
same,"viability, T/C",[36],7.22%
